From paper PMC9287337 (Scientific Reports, 2022) come the findings set out here.

Holding throughout (assay type): cell-based, mouse
Test [1] has as its system p-PI3K (PI3K phosphorylation). In words: Western blot of p-PI3K normalized to β-actin. Particulars: 15 min; for activity at 0.01 µM / activity at 0.1 µM / activity at 1 µM / activity at 10 µM: Mus musculus, 0.25 h, read-out: p-PI3K level, percent of control; for Increase in level of PI3K phosphorylation: all concentrations tested 0.01–10 µM. On the procedure: To directly assess the activation of the PI3K enzyme, Western blot analysis was carried out on C2C12 cell whole cell lysates after a 15-min stimulation with 0.01–10 µM SY-LB-35 or SY-LB-57.
(§1) C2C12 cells (3 mL) were seeded into 35 mm dishes at 7.5 × 10^4 cells/mL in complete growth medium, incubated to reach 80% confluence and serum-starved for 16–18 h. […] Thereafter, the cultures were washed with ice-cold 1X TBS for 2 min. Lysis Buffer (Cell Signaling Technology, Danvers, MA, USA) supplemented with 1 mM PMSF (phenylmethylsulphonyl fluoride) was added to the cultures and whole cell lysates were prepared.
(§2) Laemmli sample buffer (4X) was added to the whole cell lysates (20 µg) to a final concentration of 1X and heated at 100 °C for 5 min. The samples were immediately cooled on ice for 5 min and centrifuged at 9500 rpm for 2 min at RT. The samples and the Precision Plus Protein Standard (5 µL; Bio-Rad, Hercules, CA, USA) were loaded on 12% SDS polyacrylamide gels. Protein was separated using the Bio-Rad Mini Protean II Gel Electrophoresis System at 135 V. Meanwhile, 0.2 µm nitrocellulose membranes were pre-incubated in cold 1X Transfer Buffer (10 mM Tris/2.5 mM glycine/20% methanol) for at least 30 min. Next, the separated proteins were transferred at 100 V onto the pre-equilibrated nitrocellulose membranes for 1 h in Transfer Buffer, followed by blocking in 5% BSA/0.1% Tween 20/1X TBS for 30 min. The membranes were incubated overnight at 4 °C with the desired primary rabbit monoclonal antibody (p-Smad1/5(S463/465)/9(S465/467), Smad1 (D5907) XP®, p-Akt (Ser473) (D9E) XP®, or Akt (pan) (C67E7), p-SAPK/JNK (Thr183/Tyr185), SAPK/JNK, β-actin (Cell Signaling Technologies, Danvers, MA, USA)) or rabbit polyclonal antibody (phospho-PI3 Kinase p85 (Tyr458)/p55 (Tyr199) antibody (Cell Signaling Technologies, Danvers, MA, USA), p-p38 MAPK, p38 MAPK, p-ERK1, ERK1/2) (Abclonal, Woburn, MA, USA)) in Antibody Dilution Buffer (1% BSA/0.1% Tween 20/1X TBS) and then washed with 1X TBST (0.1% Tween 20/1X TBS) three times for 15 min. HRP-conjugated Goat Anti-Rabbit IgG secondary antibody (Santa Cruz Biotechnology, Inc., Dallas, TX, USA) in Antibody Dilution Buffer was added to the membranes for 1 h at RT followed by three 15-min washes with 1X TBST. Finally, the blots were developed using SuperSignal ™ West Femto HRP Substrate solutions (Thermo Scientific, Rockford, IL, USA) and analysed using the Omega Lum™ G Imaging System (San Francisco, CA, USA). Quantification of chemiluminescent signals was carried out using ImageJ (Image Processing and Analysis in Java 1.8.0_112).

The subject of a further test is p-JNK. In words: Western blot of p-JNK. The following applies: 0.01–10 µM, 15 min. On the procedure:
Whole cell lysates were prepared from the treated cultures for Western blot analysis.
as §1
Laemmli sample buffer (4X) was added to the whole cell lysates (20 µg) to a final concentration of 1X and heated at 100 °C for 5 min. The samples were immediately cooled on ice for 5 min and centrifuged at 9500 rpm for 2 min at RT. The samples and the Precision Plus Protein Standard (5 µL; Bio-Rad, Hercules, CA, USA) were loaded on 12% SDS polyacrylamide gels. […] Finally, the blots were developed using SuperSignal ™ West Femto HRP Substrate solutions (Thermo Scientific, Rockford, IL, USA) and analysed using the Omega Lum™ G Imaging System (San Francisco, CA, USA). Quantification of chemiluminescent signals was carried out using ImageJ (Image Processing and Analysis in Java 1.8.0_112).

The test system of test [2] is p-Akt cytoplasmic localization. The test can be described thus: Immunofluorescent labeling of p-Akt. The following applies: 1 µM, 15 min. As to the method: To ascertain whether these novel indolyl-benzimidazole compounds can also activate non-canonical BMP-related pathways, stimulation of the PI3K/Akt pathway was assessed by first monitoring changes in the level of p-Akt in response to SY-LB-35 and SY-LB-57.

Another test relates to C2C12 cells. In words: Live cell count (acridine orange/propidium iodide). Particulars: 24 h; for Average increase in number of cells compared to control: average over 0.01–10 µM. On the procedure:
For the concentrations tested, SY-LB-35 increased the number of cells by an average of approximately 40% (Fig. 4A) and SY-LB-57 enhanced cell numbers to an average increase of 70% compared to the control (Fig. 4B). […] Moreover, both novel compounds induce a substantial proliferative effect in C2C12 cells.
C2C12 mouse myoblast cells (ATCC®, Manassas, VA, USA) were maintained in complete growth media (DMEM/10% FBS/1X Penicillin/Streptomycin/Glutamine solution (PSG)) at 37 °C in 5% CO2. DMEM media (Dulbecco’s Modified Eagle’s Medium with high glucose and L-glutamine and without sodium pyruvate) was from Caisson Labs (Smithfield, UT, USA). FBS was from Atlanta Biologicals (Flowery Branch, GA, USA). To determine the cell concentration, 18 µL cell suspension was mixed with 2 µL Acridine orange/Propidium iodide stain (Logos Biosystems, Annandale, VA, USA). Next, the cell concentration and percent viability were determined from 10 µL stained cells using the Luna-FL™ Dual Fluorescence Cell Counter from Logos Biosystems. For cell counts following treatment with SY-LB-35 or SY-LB-57, C2C12 cells (500 µL) were seeded into 24-well plates at 1 × 10^5 cells/mL, grown to 80% confluency, serum-starved for 16–18 h using Serum-Starvation Medium (SS medium: DMEM/1X Penicillin/Streptomycin solution (PS)) and treated for 24 h with the novel compounds. The treated cells were then collected by trypsinization, pelleted at 2000 rpm for 3 min at RT, resuspended and counted.

The test system of test [3] is type I BMP receptor-dependent p-Smad. The test can be described thus: Western blot of p-Smad in presence or absence of Dorsomorphin. Particulars: 1 µM, 30 min; for p-Smad level, DM(+): Dorsomorphin 10 µM pretreatment 1 h; for p-Smad level, DM(−): without Dorsomorphin. As to the method:
Total whole cell lysates were prepared and used for Western blot analysis of Smad phosphorylation using anti-p-Smad antibodies.
as §1, §2

Take `Oc1ccc2[nH]c(-c3nc4ccccc4[nH]3)cc2c1` [SY-LB-35]: in test [1], the activity at 0.01 µM came to 431%, the activity at 0.1 µM amounted to 434%, the activity at 1 µM worked out at 492% and the activity at 10 µM worked out at 484%. Besides, in test [1], the “Increase in level of PI3K phosphorylation” value is above 300 % increase. For the same molecule, the p-JNK level entry in the test with p-JNK was “stimulated increases”. The p-Akt immunofluorescent labeling result in test [2] was “robust, punctate, cytoplasmic p-Akt labeling”. Also, the Cell number with C2C12 cells (0.01 µM) was 6.8 × 10^5 cells. Besides, the Cell number with C2C12 cells (0.1 µM) is reported as 6.6 × 10^5 cells. Besides, the Cell number in the test on C2C12 cells (1 µM) is reported as 6.8 × 10^5 cells. Also, the Cell number in the test on C2C12 cells (10 µM) was 6.4 × 10^5 cells. For the same molecule, the “Average increase in number of cells compared to control” value with C2C12 cells is reported as “approximately 40%”. Besides, in test [3], the “p-Smad level, DM(+)” value amounted to 112% and the “p-Smad level, DM(−)” value is 315%.

Regarding `COc1ccc2[nH]c(-c3nc4ccccc4[nH]3)cc2c1` [SY-LB-57], in test [1], the activity at 0.01 µM was 443%, the activity at 0.1 µM came out at 404%, the activity at 1 µM came to 471% and the activity at 10 µM came out at 451%. Besides, the “Increase in level of PI3K phosphorylation” value in test [1] is recorded as above 300 % increase. Besides, the p-JNK level entry with p-JNK is given as “stimulated increases”. Besides, the p-Akt immunofluorescent labeling result in test [2] is reported as “robust, punctate, cytoplasmic p-Akt labeling”. In the test with C2C12 cells (0.01 µM), the Cell number is given as 7.4 × 10^5 cells. In the test with C2C12 cells (0.1 µM), the Cell number was 6.5 × 10^5 cells. In the test on C2C12 cells (1 µM), the Cell number was 7.2 × 10^5 cells. For the same molecule, the Cell number with C2C12 cells (10 µM) was 6.0 × 10^5 cells. The “Average increase in number of cells compared to control” value with C2C12 cells is given as 70%. In addition, in test [3], the “p-Smad level, DM(+)” value turned out to be 111% and the “p-Smad level, DM(−)” value is on record as 172%.
